Structures are written as SMILES.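 Interpolation was linear, between the two tested concentrations surrounding the appropriate level; five concentrations were tested over 48 hours in 96-well plates. TGI denotes the concentration required for complete inhibition of growth.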

Common to all, as to assay: NCI-60 cell line screen, 48 h
Experiment [1] relates to SNB-19 CNS.
For experiment [2], the system named is HCT-116 colon.
Experiment [3] deals with SK-MEL-28 melanoma.
Experiment [4] has as its system OVCAR-8 ovarian.
Experiment [5] concerns NCI-H23 lung.
In experiment [6] the test system is SK-MEL-2 melanoma.
The test system of experiment [7] is UO-31 renal.
The test system of experiment [8] is 786-0 renal.
In experiment [9] the test system is KM20L2 colon.
Experiment [10] deals with RXF 393 renal.
Experiment [11] has as its system ACHN renal.
For experiment [12], the system named is EKVX NSCLC.
Experiment [13] relates to HT29 colon.
Experiment [14] concerns SW-620 colon.
Experiment [15] deals with HOP-62 NSCLC.
Experiment [16] deals with SK-MEL-5 melanoma.
The subject of experiment [17] is LOX IMVI melanoma.
For experiment [18], the system named is SN12C renal.

`Clc1ccc2c(c1)C1C(CO2)C(c2ccccc2)=NN1c1ccccc1` (stereo not drawn): the TGI in [1] was greater than 100 µM; in [2], 62.4 µM; in experiment [3], greater than 100 µM; in experiment [4], greater than 100 µM; in [5], 99.8 µM; in experiment [6], 75.4 µM. Besides, the TGI is 53.9 µM in experiment [7]; greater than 100 µM in experiment [8]; greater than 100 µM in experiment [9]; greater than 100 µM in experiment [10]; greater than 100 µM in experiment [11]; 68.6 µM in experiment [12]. Moreover, the TGI in experiment [13], in experiment [14] and in experiment [15] was greater than 100 µM in each case.

On to `O=C1CCC(=O)N1Cc1ccccc1N=[N+]([O-])c1ccccc1CN1C(=O)CCC1=O`, for which the TGI in [1], in [16], in experiment [2], in experiment [3], in experiment [4] and in experiment [5] was greater than 100 µM in each case. Further, the TGI in experiment [17], in experiment [6], in experiment [7], in experiment [8], in experiment [9] and in [18] was greater than 100 µM each time. Besides, the TGI in experiment [10], in [11], in experiment [12], in [13], in experiment [14] and in experiment [15] was greater than 100 µM in each case.

In the case of `CC(=O)OC1COC(Nc2ccc(C(C)=O)cc2)C(OC(C)=O)C1OC(C)=O` (stereo not drawn), the TGI in experiment [1], in experiment [16], in [3], in experiment [4], in [5] and in experiment [17] was greater than 100 µM each time. Also, the TGI in experiment [6], in experiment [7], in [8], in [9], in [18] and in [10] was greater than 100 µM throughout. Besides, the TGI in experiment [11], in [12], in experiment [13], in [14] and in experiment [15] was greater than 100 µM throughout.

As for `Cc1cc2nc(CCC(=O)O)c(=O)[nH]c2cc1C`, the TGI in [1], in experiment [16], in experiment [2], in [3], in [4] and in experiment [5] was greater than 100 µM in each case. Besides, the TGI in experiment [17], in [6], in experiment [7], in [8], in experiment [9] and in experiment [18] was greater than 100 µM throughout. Further, the TGI in experiment [10], in [11], in experiment [12], in experiment [13] and in experiment [15] was greater than 100 µM each time.

For `COC(=O)N1CCc2c(nc(N(C)CCO)[nH]c2=O)C1`, the TGI in experiment [1], in experiment [16], in [2], in [3], in [4] and in experiment [5] was greater than 100 µM each time. Moreover, the TGI in experiment [17], in experiment [6], in experiment [7], in experiment [8], in experiment [9] and in [18] was greater than 100 µM throughout. The TGI in [10], in experiment [11], in [12], in [13], in experiment [14] and in experiment [15] was greater than 100 µM throughout.

On to `N#C/C(=C/c1ccc[nH]1)P(=O)(O)O`, for which the TGI in experiment [1], in experiment [16], in experiment [2], in experiment [3], in [4] and in experiment [5] was greater than 100 µM throughout. The TGI in experiment [17], in experiment [6], in experiment [7], in experiment [8], in experiment [9] and in [18] was greater than 100 µM each time. The TGI in [10], in [11], in experiment [12], in experiment [13], in experiment [14] and in experiment [15] was greater than 100 µM in each case.

Source of the values: PubChem BioAssay (NCI).
